Measured values as given in patent publication US10761045B2, “Sensor, sensor system, method of manufacturing sensor, and method of measuring concentration of target substance” (PHC Holdings Corporation, priority 2010, dated 2020).
In brackets after ≈: the same amount, converted by molar mass. Where two headings read alike, the source gives them in different places.

Key:
[1] = Stability test (exposure test) of sensor at 30° C., 80% humidity; details: for change in the response current value after the exposure test: 24 hours at 30° C., 80% relative humidity; for Sensor stability % change in response current value between before and after 24 hours exposure at 30° C. and 80% humidity: additive in reagent layer, additive conc. 1.0-5.0 mM
Protocol: Sensors were manufactured in the same manner as described in section [1-5] using the reagent solutions prepared above. The sensors manufactured were exposed to an environment of high temperature and humidity (30° C., 80% relative humidity) for 24 hours. Response current values of the pre- and post-exposed sensors were measured for a series of glucose solutions of known concentrations.
Sensors were manufactured using fresh reagent solutions having the same compositions as described above. The sensors were subjected to an exposure experiment where they were allowed to stand for 24 hours at 30° C. and 80% humidity. Response current values of non-exposed sensors (i.e., sensors stored under the ambient condition (25° C., 5% humidity) for 24 hours) and the exposed sensors were measured for a series of glucose solutions of known concentrations.

[2] = Storage stability of reagent solution (response current of sensors made with stored vs fresh reagent solution); type: physicochemical
Text: A sensor having the configuration illustrated in FIG. 1 was manufactured. The detailed procedure will now be described. First, by sputtering palladium, 8 nm-thick conductive layer 3 was deposited on substrate 2 which was 30 mm in length, 7 mm in width and 0.2 mm in thickness and which contained polyethylene terephthalate as its main component. Thereafter, a 0.1 mm-width non-conductive track was formed by laser ablation, to form electrodes 31 to 33. Electrode 31 was designed to function as a working electrode, electrode 32 as a counter electrode, and electrode 33 as a sensing electrode.
Using a microsyringe, 1.2 μL of each reagent solution was applied to form reagent layer 4 in a shape of 2.2 mm diameter-circular. After formation of reagent layer 4, spacer 5 (0.145 mm thick) having a cut-out with a length of 3.4 mm a width of 1.2 mm and cover 6 were sequentially attached to the substrate having the electrodes formed thereon. In this way a sensor was manufactured that has a capillary having a volume of 0.6 μL. […]
Response current values of each sensor were measured using a series of glucose solutions of known concentrations.
By adding as an additive imidazole, histamine, histidine, 2-aminoimidazole, 4,5-bis(hydroxymethyl)imidazole, 1,2,4-triazole, 3-amino-1,2,4-triazole, 4-amino-1,2,4-triazole, 3,5-diamino-1,2,4-triazole, 2-methylimidazole, or 1,2-dimethylimidazole, reagent solutions were prepared that contain the same composition as reagent solution C except the type and concentration of the additive. The concentrations of the additives are as indicated in Tables below and the accompanying drawings.
Further, sensors were manufactured using the same reagent solutions stored at 25° C. and 5% humidity for 24 hours after preparation. […]

[3] = Redox / oxidation potentials stated in the description; type: physicochemical
[4] = Solubility in water of mediators; type: physicochemical; details: for solubility: water
Text: Solubilities in water of Compounds A, B, H′, I, I′ and J and disodium 9,10-phenanthrenequinone 2,7-disulfonate are given in Table 1.

[5] = Cyclic voltammetry of mediators, redox potential vs Ag|AgCl; type: physicochemical; details: reference Ag|AgCl; for Eox (V): potential at peak oxidation current; for Ered (V): potential at peak reduction current; for EO′ (V) [(Ered + Eox)/2]: redox potential, average of Ered and Eox
Protocol: Redox potential (EO′) was calculated in the following procedure. Specifically, cyclic voltammetry using Ag|AgCl as the reference electrode was performed under the same conditions as those in Examples to be described later. Redox potential (EO′) was found as an average of the potential value at the peak oxidation current (Eox) and the potential value at the peak reduction current (Ered), i.e., [(Ered+Eox)/2].
Cyclic voltammetry was performed for the resultant reagent solution using the aforementioned sensor electrode. As a reference electrode, a silver/silver chloride (saturated potassium chloride) electrode (hereinafter “Ag|AgCl”) was used. The reference electrode was led to vent hole 61 of the sensor electrode via a salt bridge. A potentiostat was used for measurement. The electrodes and the potentiostat used were those commonly used in electrochemistry. These instruments can be purchased from BAS Inc., for example.
In cyclic voltammetry, a potential applied to the working electrode was swept linearly with respect to time. The sweeping rate was set to 0.1 V/second. First, a first potential was applied to the working electrode, and the electrode potential was swept toward negative potentials from the first potential to a second potential. The electrode potential was then swept back from the second potential to the first potential toward positive potentials. The first and second potentials were 0.2 V and […], respectively, […]

[6] = cited from earlier work; for redox potential: coenzymes and phenanthroline quinone, background values

## c1nc[nH]n1 [1,2,4-Triazole]
[1]
  change in the response current value after the exposure test: relatively small change in the response current value
  Sensor stability % change in response current value between before and after 24 hours exposure at 30° C. and 80% humidity: −14%
[2]
  Reagent solution stability % change in response current value between before and after 24 hours storage at 25° C.: −12%

## Cc1nccn1C [1,2-Dimethylimidazole]
[1]
  Sensor stability % change in response current value between before and after 24 hours exposure at 30° C. and 80% humidity: −44%
[2]
  Reagent solution stability % change in response current value between before and after 24 hours storage at 25° C.: 2%

## O=C1C=C(S(=O)(=O)O)c2ccccc2C1=O [1,2-naphthoquinone-4-sulfonic acid]
[3]
  redox potential of exemplary electron acceptors: −16 mV

## Nc1ncc[nH]1 [2-Aminoimidazole]
[1]
  change in the response current value after the exposure test: relatively small change in the response current value
  Sensor stability % change in response current value between before and after 24 hours exposure at 30° C. and 80% humidity: −7%
[2]
  Reagent solution stability % change in response current value between before and after 24 hours storage at 25° C.: −6%

## Cc1ncc[nH]1 [2-Methylimidazle, 2-methylimidazole]
[1]
  Sensor stability % change in response current value between before and after 24 hours exposure at 30° C. and 80% humidity: −44%
[2]
  Reagent solution stability % change in response current value between before and after 24 hours storage at 25° C.: 1%

## Nc1n[nH]c(N)n1 [3,5-Diamino-1,2,4-triazole]
[1]
  change in the response current value after the exposure test: relatively small change in the response current value
  Sensor stability % change in response current value between before and after 24 hours exposure at 30° C. and 80% humidity: −2%
[2]; additive in reagent solution C composition (PQSA, FAD-GDH), additive conc. 1.0-5.0 mM
  Reagent solution stability % change in response current value between before and after 24 hours storage at 25° C.: −1%

## Nc1nc[nH]n1 [3-Amino-1,2,4-triazole]
[1]
  change in the response current value after the exposure test: relatively small change in the response current value
  Sensor stability % change in response current value between before and after 24 hours exposure at 30° C. and 80% humidity: −4%
[2]
  Reagent solution stability % change in response current value between before and after 24 hours storage at 25° C.: 0%

## OCc1nc[nH]c1CO [4,5-Bis(hydroxymethyl) imidazole, 4,5-bis(hydroxymethyl)imidazole]
[1]
  change in the response current value after the exposure test: relatively small change in the response current value
  Sensor stability % change in response current value between before and after 24 hours exposure at 30° C. and 80% humidity: −11%
[2]
  Reagent solution stability % change in response current value between before and after 24 hours storage at 25° C.: −14%

## Nn1cnnc1 [4-Amino-1,2,4-triazole]
[1]
  change in the response current value after the exposure test: relatively small change in the response current value
  Sensor stability % change in response current value between before and after 24 hours exposure at 30° C. and 80% humidity: −4%
[2]
  Reagent solution stability % change in response current value between before and after 24 hours storage at 25° C.: −6%

## N=C(N)NCCC[C@H](N)C(=O)O [Arginine, reference compound]
[1]
  Sensor stability % change in response current value between before and after 24 hours exposure at 30° C. and 80% humidity: −12%
[2]
  Reagent solution stability % change in response current value between before and after 24 hours storage at 25° C.: −25%

## NCCCCN [Butanediamine, reference compound]
[1]
  Sensor stability % change in response current value between before and after 24 hours exposure at 30° C. and 80% humidity: −51%

## O=C1C(=O)c2cc([N+](=O)[O-])ccc2-c2ccccc21 [Compound A]
[4]; read-out: Solubility in water
  solubility: 1 mM (≈ 253 µg/mL)
[5]
  Eox (V): −0.10 V
  Ered (V): −0.13 V
  EO′ (V) [(Ered + Eox)/2]: −0.12 V

## Nc1ccc2c(c1)C(=O)C(=O)c1ccccc1-2 [Compound B]
[4]; read-out: Solubility in water
  solubility: 1 mM (≈ 223 µg/mL)
[5]
  Eox (V): −0.19 V
  Ered (V): −0.23 V
  EO′ (V) [(Ered + Eox)/2]: −0.21 V

## O=C1C(=O)c2cc(-c3ccc(S(=O)(=O)[O-])cc3)ccc2-c2ccccc21.[Na+] [Compound H′]
[4]; read-out: Solubility in water
  solubility: 20 mM
[5]
  Eox (V): −0.14 V
  Ered (V): −0.21 V
  EO′ (V) [(Ered + Eox)/2]: −0.18 V

## O=C([O-])c1ccc(-c2ccc3c(c2)C(=O)C(=O)c2ccccc2-3)cc1.[Na+] [Compound I]
[4]; read-out: Solubility in water
  solubility: 5 mM
[5]
  Eox (V): −0.14 V
  Ered (V): −0.22 V
  EO′ (V) [(Ered + Eox)/2]: −0.18 V

## O=C(NCCS(=O)(=O)[O-])c1ccc(-c2ccc3c(c2)C(=O)C(=O)c2ccccc2-3)cc1.[Na+] [Compound I′]
[4]; read-out: Solubility in water
  solubility: 20 mM
[5]
  Eox (V): −0.14 V
  Ered (V): −0.22 V
  EO′ (V) [(Ered + Eox)/2]: −0.18 V

## O=C([O-])c1cc(C(=O)[O-])cc(-c2ccc3c(c2)C(=O)C(=O)c2ccccc2-3)c1.[Na+].[Na+] [Compound J]
[4]; read-out: Solubility in water
  solubility: 50 mM
[5]
  Eox (V): −0.15 V
  Ered (V): −0.23 V
  EO′ (V) [(Ered + Eox)/2]: −0.19 V

## O=C1C(=O)c2cc(S(=O)(=O)[O-])ccc2-c2ccc(S(=O)(=O)[O-])cc21.[Na+].[Na+] [Disodium 9,10-phenanthrenequinone-2,7-disulfonate]
[4]
  Solubility in water: ≥200 mM
[5]
  Eox (V): −0.06 V
  Ered (V): −0.18 V
  EO′ (V) [(Ered + Eox)/2]: −0.12 V

## NCCN [Ethylenediamine, reference compound]
[1]
  Sensor stability % change in response current value between before and after 24 hours exposure at 30° C. and 80% humidity: −45%
[2]
  Reagent solution stability % change in response current value between before and after 24 hours storage at 25° C.: −3%

## Cc1cc2nc3c(=O)[nH]c(=O)nc-3n(C[C@H](O)[C@H](O)[C@H](O)COP(=O)(O)OP(=O)(O)OC[C@H]3O[C@@H](n4cnc5c(N)ncnc54)[C@H](O)[C@@H]3O)c2cc1C [FAD, flavin adenine dinucleotide]
[6]
  redox potential: approximately −300 mV

## NCCc1c[nH]cn1 [Histamine]
[1]
  change in the response current value after the exposure test: relatively small change in the response current value
  Sensor stability % change in response current value between before and after 24 hours exposure at 30° C. and 80% humidity: −3%
[2]
  Reagent solution stability % change in response current value between before and after 24 hours storage at 25° C.: −2%

## N[C@@H](Cc1c[nH]cn1)C(=O)O [Histidine]
[1]
  change in the response current value after the exposure test: relatively small change in the response current value
  Sensor stability % change in response current value between before and after 24 hours exposure at 30° C. and 80% humidity: −12%
[2]
  Reagent solution stability % change in response current value between before and after 24 hours storage at 25° C.: −7%

## NCCCC[C@H](N)C(=O)O [Lysine, reference compound]
[1]
  Sensor stability % change in response current value between before and after 24 hours exposure at 30° C. and 80% humidity: −31%
[2]
  Reagent solution stability % change in response current value between before and after 24 hours storage at 25° C.: −20%

## O=C(O)c1cc(C(=O)O)c2c(n1)C(=O)C(=O)c1cc(C(=O)O)[nH]c1-2 [PQQ, pyrroloquinoline quinone]
[6]
  redox potential: approximately −200 mV

## O=C1C(=O)c2cc(S(=O)(=O)[O-])ccc2-c2ccccc21.[Na+] [Sodium 9,10-phenanthrenequinone-2-sulfonate]
[4]
  solubility: 80 mM
[5]
  Eox (V): −0.12 V
  Ered (V): −0.18 V
  EO′ (V) [(Ered + Eox)/2]: −0.15 V

## O=C1O[C@H]([C@@H](O)CO)C(O)=C1O [ascorbic acid]
[6]; interfering substance, background value
  oxidation potential: approximately −140 mV

## O=C1C(=O)c2cccnc2-c2ncccc21 [phenanthroline quinone]
[6]
  redox potential: approximately 0 mV

## Ethyleneamine [reference compound]
[1]
  Sensor stability % change in response current value between before and after 24 hours exposure at 30° C. and 80% humidity: −77%
